Results as given in patent US20250066303A1, “ARYL TETRAHYDROPYRIDINE DERIVATIVE OR SALT THEREOF, PEST CONTROL AGENT CONTAINING SAME, AND METHOD FOR USE THEREOF” (NIHON NOHYAKU CO., LTD., priority 2021, published 2025).

Assays:
[1] = system: Plutella xylostella; assay: Insecticidal test against Plutella xylostella; conditions: 500 ppm drug solution, Chinese cabbage seedlings with eggs immersed about 30 sec, six days after immersion, 25° C.
Description: Insecticidal Test Against Plutella xylostella
Six days after the immersion in the drug solution, the number of surviving insects was examined. […] In triplicate using 10 per plot.

[2] = system: Laodelphax striatellus; assay: Insecticidal test against Laodelphax striatellus; conditions: 500 ppm drug solution, rice seedlings immersed 30 seconds, three-instar insects, eight days after inoculation
[3] = system: Frankliniella occidentalis; assay: Insecticidal test against Frankliniella occidentalis; conditions: 500 ppm drug solution sprayed on hatched larvae on Phaseolus vulgaris leaf pieces, four days after treatment
Description: Insecticidal Test Against Frankliniella occidentalis
Female adults of Frankliniella occidentalis were inoculated onto Phaseolus vulgaris leaf pieces, and after allowing them to lay eggs for one day, the female adults were removed. […] Four days after the treatment, the number of surviving larvae of this species larvae was examined. […] In duplicate.

[4] = system: Dirofilaria immitis; assay: Influence evaluation test on the growth of Dirofilaria immitis; conditions: 168 h, read-out: development inhibition rate from the L3 stage larva to the L4-stage larva

SMILES | corrected mortality, rating of assessment [1] | corrected mortality, rating of assessment [2] | corrected mortality, rating of assessment [3] | inhibition at 10 µM [4] [%]
CN1C(=O)C(C(=O)Nc2ccc(Cl)cc2)=C(O)CC1c1ccc(C(F)(F)F)cc1 (centres unmarked) [1-4] | D or higher | D or higher | – | –
O=C(Nc1ccc(F)cc1)C1=C(O)CC(c2ccc(C(F)(F)F)cc2)N(Cc2ccccc2)C1=O (centres unmarked) [1-5] | D or higher | – | D or higher | –
CN1C(=O)C(C(=S)Nc2ccc(F)cc2)=C(O)CC1c1ccc(C(F)(F)F)cc1 (centres unmarked) [1-8] | D or higher | – | D or higher | –
CN1C(=O)C(C(=O)Nc2ccc(F)cn2)=C(O)CC1c1ccc(C(F)(F)F)cc1 (centres unmarked) [1-10] | D or higher | – | – | –
CN1C(=O)C(C(=S)Nc2ccc(F)cn2)=C(O)CC1c1ccc(C(F)(F)F)cc1 (centres unmarked) [1-11] | D or higher | – | – | –
CN1C(=O)C(C(=O)Nc2ccc(F)cc2)=C(O)CC1c1ccc(C(F)(F)F)nc1 (centres unmarked) [1-12] | D or higher | D or higher | – | –
CN1C(=O)C(C(=O)Nc2ccc(F)cn2)=C(O)CC1c1ccc(C(F)(F)F)nc1 (centres unmarked) [1-13] | D or higher | D or higher | – | –
CN1C(=O)C(C(=O)Nc2ccc(F)nc2)=C(O)CC1c1ccc(C(F)(F)F)cc1 (centres unmarked) [1-14] | D or higher | D or higher | D or higher | –
CN1C(=O)C(C(=O)Nc2ncc(F)cn2)=C(O)CC1c1ccc(C(F)(F)F)cc1 (centres unmarked) [1-15] | D or higher | – | – | –
C#CCNC(=O)C1=C(O)CC(c2ccc(C(F)(F)F)cc2)N(C)C1=O (centres unmarked) [1-27] | D or higher | – | – | –
CCCN1C(=O)C(C(=O)Nc2ccc(F)cn2)=C(O)CC1c1ccc(C(F)(F)F)nc1 (centres unmarked) [1-31] | D or higher | D or higher | D or higher | –
CCCN1C(=O)C(C(=O)Nc2ccc(F)cc2)=C(O)CC1c1ccc(C(F)(F)F)nc1 (centres unmarked) [1-32] | D or higher | D or higher | – | –
C#CCN1C(=O)C(C(=O)Nc2cc(C)on2)=C(O)CC1c1ccc(C(F)(F)F)nc1 (centres unmarked) [1-33] | D or higher | D or higher | D or higher | –
C#CCN1C(=O)C(C(=O)Nc2ccn(C)n2)=C(O)CC1c1ccc(C(F)(F)F)nc1 (centres unmarked) [1-34] | D or higher | D or higher | – | –
C#CCN1C(=O)C(C(=O)Nc2ccnc(F)c2)=C(O)CC1c1ccc(C(F)(F)F)nc1 (centres unmarked) [1-35] | D or higher | D or higher | – | –
C#CCN1C(=O)C(C(=O)Nc2ccc(F)cn2)=C(O)CC1c1ccc(Cl)nc1 (centres unmarked) [1-36] | D or higher | D or higher | D or higher | –
C#CCN1C(=O)C(C(=O)Nc2ccc(F)cn2)=C(O)CC1c1ccc(SC)cc1 (centres unmarked) [1-37] | D or higher | D or higher | – | –
C#CCN1C(=O)C(C(=O)Nc2ccc(F)cn2)=C(O)CC1c1ccc([S+](C)[O-])cc1 (centres unmarked) [1-38] | D or higher | D or higher | – | –
C#CCN1C(=O)C(C(=O)Nc2ccc(F)cn2)=C(O)CC1c1ccc(S(C)(=O)=O)cc1 (centres unmarked) [1-39] | D or higher | D or higher | – | –
C#CCN1C(=O)C(C(=O)Nc2ccc(SC)cc2)=C(O)CC1c1ccc(C(F)(F)F)nc1 (centres unmarked) [1-41] | – | D or higher | – | –
C#CCN1C(=O)C(C(=O)Nc2ccc([S+](C)[O-])cc2)=C(O)CC1c1ccc(C(F)(F)F)nc1 (centres unmarked) [1-42] | – | D or higher | – | –
C#CCN1C(=O)C(C(=O)Nc2ccc(S(C)(=O)=O)cc2)=C(O)CC1c1ccc(C(F)(F)F)nc1 (centres unmarked) [1-43] | – | D or higher | – | –
C#CCN1C(=O)C(C(=O)Nc2ccc(F)cc2)=C(O)CC1c1ccc(SC)cc1 (centres unmarked) [1-44] | D or higher | – | – | –

SMILES | corrected mortality, rating of assessment [1] | corrected mortality, rating of assessment [2] | corrected mortality, rating of assessment [3] | inhibition at 10 µM [4] [%]
CN1C(=O)C(C(=O)Nc2ccc(SC(F)(F)F)cc2)=C(O)CC1c1ccc(C(F)(F)F)nc1 (centres unmarked) [1-49] | D or higher | – | – | –
CN1C(=O)C(C(=O)Nc2ccc(NS(C)(=O)=O)cc2)=C(O)CC1c1ccc(C(F)(F)F)nc1 (centres unmarked) [1-60] | D or higher | – | – | –
O=C1NCC(c2ccccc2C(F)(F)F)C(O)=C1C(=O)Nc1ccccc1F (centres unmarked) [3-3] | D or higher | – | – | –
O=C1NCC(c2ccc(Cl)cc2)C(O)=C1C(=O)Nc1ccc(F)cc1 (centres unmarked) [3-10] | D or higher | – | – | –
CN1CC(C)(c2ccc(C(F)(F)F)cc2)C(O)=C(C(=O)Nc2ccc(F)cc2)C1=O (centres unmarked) [3-11] | D or higher | – | – | –
CN1CC(C)(c2ccc(C(F)(F)F)cc2)C(O)=C(C(=O)Nc2ccc(C(F)(F)F)cc2)C1=O (centres unmarked) [3-12] | D or higher | – | – | –
CCC1(c2ccc(C(F)(F)F)cc2)CN(C)C(=O)C(C(=S)Nc2ccc(F)cn2)=C1O (centres unmarked) [3-23] | D or higher | D or higher | – | –
CCC1(c2ccc(C(F)(F)F)cc2)CNC(=O)C(C(=O)Nc2ccc(F)cc2)=C1O (centres unmarked) [3-24] | D or higher | D or higher | – | –
CCC1(c2ccc(C(F)(F)F)cc2)CN(C)C(=O)C(C(=O)Nc2ncc(F)cn2)=C1O (centres unmarked) [3-26] | – | D or higher | – | –
CCC1(c2ccc(C(F)(F)F)cc2)CN(C)C(=O)C(C(=O)NN2CCOCC2)=C1O (centres unmarked) [3-27] | – | D or higher | – | –
CCC1(c2ccc(C(F)(F)F)cc2)CN(C)C(=O)C(C(=O)Nc2cnc3ccccc3c2)=C1O (centres unmarked) [3-29] | D or higher | – | – | –
CCC1(c2ccc(C(F)(F)F)cc2)CN(C)C(=O)C(C(=O)Nc2ccc(OC)cc2)=C1O (centres unmarked) [3-31] | D or higher | D or higher | – | –
CCC1(c2ccc(C(F)(F)F)cc2)CN(C)C(=O)C(C(=O)Nc2ccc(C)cc2)=C1O (centres unmarked) [3-34] | D or higher | – | – | –
CCC1(c2ccc(C(F)(F)F)cc2)CN(C)C(=O)C(C(=O)Nc2ccc(S(C)(=O)=O)cc2)=C1O (centres unmarked) [3-35] | D or higher | D or higher | – | –
CCC1(c2ccc(C(F)(F)F)cc2)CN(C)C(=O)C(C(=O)Nc2ccc(C3CC3)cc2C)=C1O (centres unmarked) [3-38] | D or higher | – | – | –
CN1C(=O)C(C(=O)Nc2ccc(C(F)(F)F)cc2)=C(O)CC1c1ccc(C(F)(F)F)cc1 (centres unmarked) [compound No. 1-1, 4-hydroxy-1-methyl-2-oxo-N, 6-bis(4-(trifluoromethyl)phenyl)-1,2,5,6-tetrahydropyridine-3-carboxamide] | D or higher | – | – | –
CN1C(=O)C(C(=O)Nc2ccc(OC(F)(F)F)cc2)=C(O)CC1c1ccc(C(F)(F)F)cc1 (centres unmarked) [compound No. 1-2] | D or higher | – | – | –
CN1C(=O)C(C(=O)NCc2ccc(F)cc2)=C(O)CC1c1ccc(C(F)(F)F)cc1 (centres unmarked) [compound No. 1-3] | D or higher | – | – | –
CN1C(=O)C(C(=S)Nc2ccc(C(F)(F)F)cc2)=C(O)CC1c1ccc(C(F)(F)F)cc1 (centres unmarked) [compound No. 1-9, 4-hydroxy-1-methyl-2-oxo-N, 6-bis(4-(trifluoromethyl)phenyl)-1,2,5,6-tetrahydropyridine-3-carbothioamide] | D or higher | – | D or higher | –
O=C(Nc1ccc(F)cc1)C1=C(S)CC(c2ccc(C(F)(F)F)nc2)NC1=O (centres unmarked) [compound No. 1-28, N-(4-fluorophenyl)-4-mercapto-6-oxo-6′-(trifluoromethyl)-1,2,3,6-tetrahydro-[2,3′-bipyridine]-5-carboxamide] | D or higher | D or higher | D or higher | –
CSC1=C(C(=O)Nc2ccc(F)cc2)C(=O)NC(c2ccc(C(F)(F)F)nc2)C1 (centres unmarked) [compound No. 1-29, N-(4-fluorophenyl)-4-(methylthio)-6-oxo-6′-(trifluoromethyl)-1,2,3,6-tetrahydro-[2,3′-bipyridine]-5-carboxamide] | D or higher | – | – | –
C[S+]([O-])C1=C(C(=O)Nc2ccc(F)cc2)C(=O)NC(c2ccc(C(F)(F)F)nc2)C1 (centres unmarked) [compound No. 1-30, N-(4-fluorophenyl)-4-(methylsulfinyl)-6-oxo-6′-(trifluoromethyl)-1,2,3,6-tetrahydro-[2,3′-bipyridine]-5-carboxamide] | D or higher | D or higher | D or higher | –
CN1CC(C)(c2ccc(C(F)(F)F)cc2)C(O)=C(C(=S)Nc2ccc(F)cc2)C1=O (centres unmarked) [compound No. 3-14, N-(4-fluorophenyl)-4-hydroxy-1,5-dimethyl-2-oxo-5-(4-(trifluoromethyl)phenyl)-1,2,5,6-tetrahydropyridine-3-carbothioamide] | – | – | – | ≥ 50
